The results in this text go back to patent publication US20130023540A1, “TREATMENT OF MASTITIS” (BAYER HEALTHCARE AG, priority 2004, published 2013).

The data set is described as follows: investigation of the substances having an antibacterial effect in bovine milk following parenteral administration of enrofloxacin. Format: in vivo.

As for `O=C(O)c1cn(C2CC2)c2cc(N3CCNCC3)c(F)cc2c1=O` [ciprofloxacin, 1-cyclopropyl-7-(1-piperazinyl)-6-fluoro-1,4-dihydro-4-oxo-3-quinolonecarboxylic acid], the “proportion in the milk” value is reported as about 90%. As to `CCN1CCN(c2cc3c(cc2F)c(=O)c(C(=O)O)cn3C2CC2)CC1` [enrofloxacin, 1-cyclopropyl-7-(4-ethyl-1-piperazinyl)-6-fluoro-1,4-dihydro-4-oxo-3-quinolone-carboxylic acid], the “antibacterial activity in bovine milk (enrichment of active compounds as compared with the serum concentration)” value is reported as “high antibacterial activity” and the “proportion in the milk” value is recorded as about 10%.
